Measurements taken from patent US20250360145A1, “CSF-1R INHIBITORS AND USES THEREOF” (Myrobalan Therapeutics, Inc., priority 2022, published 2025).
Like-named read-outs stand apart in the source and are kept apart here.

Key:
[1] = target: CSF-1R (Homo sapiens (Human), UniProt P07333); assay: Biochemical HTRF kinase assay, CSF-1R; conditions: recombinant human CSF-1R;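 also: enzyme incubated with inhibitor plus a substrate and ATP mix for one hour at room temperature before HTRF detection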
[2] = target: c-Kit (Homo sapiens (Human), UniProt P10721); assay: Biochemical HTRF kinase assay, c-Kit; conditions: for IC50: recombinant human protein, read-out: cKit IC50; for cKit Fold: selectivity: IC50 of cKit as multiple of IC50 of CSF-1R;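 as to all read-outs here: enzyme reaction with substrate and ATP run in 384-well plates for 1 hour at room temperature, kinase activity detected by HTRF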
Chain of c-Kit (P10721 26-976): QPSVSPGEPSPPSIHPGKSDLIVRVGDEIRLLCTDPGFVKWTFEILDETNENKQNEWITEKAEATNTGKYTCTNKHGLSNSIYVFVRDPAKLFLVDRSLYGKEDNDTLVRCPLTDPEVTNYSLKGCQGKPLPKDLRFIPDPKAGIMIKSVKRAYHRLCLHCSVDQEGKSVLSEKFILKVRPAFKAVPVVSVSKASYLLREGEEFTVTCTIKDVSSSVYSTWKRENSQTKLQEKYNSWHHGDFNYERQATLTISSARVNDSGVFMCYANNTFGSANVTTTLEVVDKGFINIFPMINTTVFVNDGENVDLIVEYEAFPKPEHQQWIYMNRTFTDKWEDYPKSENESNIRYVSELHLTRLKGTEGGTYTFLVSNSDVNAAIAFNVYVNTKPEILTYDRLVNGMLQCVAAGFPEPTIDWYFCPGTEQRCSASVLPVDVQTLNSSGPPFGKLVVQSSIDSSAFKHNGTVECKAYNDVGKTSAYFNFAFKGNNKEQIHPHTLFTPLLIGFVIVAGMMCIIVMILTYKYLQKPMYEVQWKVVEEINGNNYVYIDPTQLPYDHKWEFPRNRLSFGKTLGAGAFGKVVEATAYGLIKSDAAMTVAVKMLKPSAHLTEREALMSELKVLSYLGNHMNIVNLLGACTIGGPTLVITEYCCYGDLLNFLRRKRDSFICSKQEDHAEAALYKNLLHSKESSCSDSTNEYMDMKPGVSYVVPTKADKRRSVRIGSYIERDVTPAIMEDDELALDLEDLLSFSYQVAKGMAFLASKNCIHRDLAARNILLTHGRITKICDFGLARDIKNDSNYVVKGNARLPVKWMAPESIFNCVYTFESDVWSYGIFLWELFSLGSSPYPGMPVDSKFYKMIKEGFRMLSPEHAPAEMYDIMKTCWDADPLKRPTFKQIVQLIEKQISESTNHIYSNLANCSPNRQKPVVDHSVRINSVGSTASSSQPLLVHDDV

[3] = target: FLT3 (Homo sapiens (Human), UniProt P36888); assay: Biochemical HTRF kinase assay, FLT3; conditions: for IC50: recombinant human protein; for FLT3 Fold: selectivity: IC50 of FLT3 as multiple of IC50 of CSF-1R
Chain of FLT3 (P36888 27-993): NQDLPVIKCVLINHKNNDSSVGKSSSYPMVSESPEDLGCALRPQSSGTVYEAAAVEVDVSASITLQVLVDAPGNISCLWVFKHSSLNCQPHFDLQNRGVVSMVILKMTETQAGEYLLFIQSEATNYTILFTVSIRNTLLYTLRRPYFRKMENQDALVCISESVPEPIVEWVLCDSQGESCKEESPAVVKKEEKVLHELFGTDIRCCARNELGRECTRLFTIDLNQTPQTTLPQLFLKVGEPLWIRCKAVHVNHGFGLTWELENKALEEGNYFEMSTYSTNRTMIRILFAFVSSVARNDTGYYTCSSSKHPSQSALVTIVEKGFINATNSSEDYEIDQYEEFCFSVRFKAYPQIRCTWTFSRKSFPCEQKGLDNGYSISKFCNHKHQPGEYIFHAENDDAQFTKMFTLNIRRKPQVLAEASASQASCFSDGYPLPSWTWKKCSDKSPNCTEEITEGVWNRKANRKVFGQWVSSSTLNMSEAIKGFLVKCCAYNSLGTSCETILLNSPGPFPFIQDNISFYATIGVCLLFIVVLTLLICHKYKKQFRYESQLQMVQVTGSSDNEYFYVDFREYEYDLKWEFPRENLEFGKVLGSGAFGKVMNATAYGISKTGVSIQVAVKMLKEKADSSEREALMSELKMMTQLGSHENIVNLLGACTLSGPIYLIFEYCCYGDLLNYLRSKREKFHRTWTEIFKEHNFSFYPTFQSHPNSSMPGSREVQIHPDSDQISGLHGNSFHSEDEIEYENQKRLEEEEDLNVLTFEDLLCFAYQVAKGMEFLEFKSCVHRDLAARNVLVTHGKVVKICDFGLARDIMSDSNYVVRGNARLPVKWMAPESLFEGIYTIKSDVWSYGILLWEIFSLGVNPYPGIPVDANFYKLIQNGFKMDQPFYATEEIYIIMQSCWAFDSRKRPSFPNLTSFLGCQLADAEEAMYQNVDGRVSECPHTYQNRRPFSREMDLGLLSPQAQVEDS

[4] = target: PDGFRβ (Homo sapiens (Human), UniProt P09619); assay: Biochemical HTRF kinase assay, PDGFRβ; conditions: for IC50: recombinant human protein, read-out: PDGFR-1β IC50; for PDGFR-1β Fold: selectivity: IC50 of PDGFR-1β as multiple of IC50 of CSF-1R;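 as to all read-outs here: kinase reaction with substrate/ATP mix run 1 h at room temperature in 384-well format, HTRF signal detection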
Chain of PDGFRβ (P09619 33-1106): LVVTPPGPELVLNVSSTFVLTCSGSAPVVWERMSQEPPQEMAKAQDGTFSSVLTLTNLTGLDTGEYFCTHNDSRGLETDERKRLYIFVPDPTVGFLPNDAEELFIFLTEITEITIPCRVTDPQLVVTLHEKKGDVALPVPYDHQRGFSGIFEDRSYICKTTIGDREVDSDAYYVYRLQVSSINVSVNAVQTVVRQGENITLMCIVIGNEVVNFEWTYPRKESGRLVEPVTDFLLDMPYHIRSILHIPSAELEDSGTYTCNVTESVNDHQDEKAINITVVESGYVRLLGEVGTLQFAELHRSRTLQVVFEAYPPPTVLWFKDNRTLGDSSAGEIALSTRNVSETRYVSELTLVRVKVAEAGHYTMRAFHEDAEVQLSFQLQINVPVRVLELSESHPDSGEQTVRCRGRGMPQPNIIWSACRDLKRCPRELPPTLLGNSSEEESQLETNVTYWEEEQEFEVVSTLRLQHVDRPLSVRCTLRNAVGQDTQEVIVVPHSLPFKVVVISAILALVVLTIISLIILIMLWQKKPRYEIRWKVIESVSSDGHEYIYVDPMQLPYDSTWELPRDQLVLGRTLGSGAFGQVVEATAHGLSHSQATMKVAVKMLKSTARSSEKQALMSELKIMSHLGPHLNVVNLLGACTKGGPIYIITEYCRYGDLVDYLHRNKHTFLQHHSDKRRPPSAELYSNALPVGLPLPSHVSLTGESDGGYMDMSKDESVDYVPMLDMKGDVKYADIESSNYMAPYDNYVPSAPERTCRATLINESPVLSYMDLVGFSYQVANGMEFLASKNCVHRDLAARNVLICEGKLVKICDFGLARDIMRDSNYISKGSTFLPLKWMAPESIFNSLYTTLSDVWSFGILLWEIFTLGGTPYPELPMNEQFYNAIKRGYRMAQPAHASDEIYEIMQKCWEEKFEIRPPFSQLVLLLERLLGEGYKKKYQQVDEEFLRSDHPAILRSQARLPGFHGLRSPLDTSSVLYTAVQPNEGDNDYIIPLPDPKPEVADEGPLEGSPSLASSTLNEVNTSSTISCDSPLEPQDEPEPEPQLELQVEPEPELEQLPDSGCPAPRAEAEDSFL

[5] = tested on: Ba/F3_CSF-1R (stably expressing human CSF-1R kinase); assay: Cell proliferation assay, Ba/F3_CSF-1R; assay type: cell-based
[6] = tested on: EOC2 cell; assay: Cell proliferation assay, EOC2; assay type: cell-based, mouse
[7] = BaF3, 72 h, Ba/F3_CSF-1R cells, 72 hours treatment, read-out: CSF-1R BaF3 EC50
[8] = EOC2 cells, 72 hours treatment, read-out: ECO2 EC50
[9] = Ba/F3_CSF-1R cells, 72 hours treatment, read-out: CSF-1R BaF3 EC50
[10] = Mus musculus, 72 h, EOC2 cells, 72 hours treatment, read-out: ECO2 EC50
[11] = BaF3, 72 h, read-out: CSF-1R BaF3 EC50 (nM)

Chain of CSF-1R (P07333 20-972): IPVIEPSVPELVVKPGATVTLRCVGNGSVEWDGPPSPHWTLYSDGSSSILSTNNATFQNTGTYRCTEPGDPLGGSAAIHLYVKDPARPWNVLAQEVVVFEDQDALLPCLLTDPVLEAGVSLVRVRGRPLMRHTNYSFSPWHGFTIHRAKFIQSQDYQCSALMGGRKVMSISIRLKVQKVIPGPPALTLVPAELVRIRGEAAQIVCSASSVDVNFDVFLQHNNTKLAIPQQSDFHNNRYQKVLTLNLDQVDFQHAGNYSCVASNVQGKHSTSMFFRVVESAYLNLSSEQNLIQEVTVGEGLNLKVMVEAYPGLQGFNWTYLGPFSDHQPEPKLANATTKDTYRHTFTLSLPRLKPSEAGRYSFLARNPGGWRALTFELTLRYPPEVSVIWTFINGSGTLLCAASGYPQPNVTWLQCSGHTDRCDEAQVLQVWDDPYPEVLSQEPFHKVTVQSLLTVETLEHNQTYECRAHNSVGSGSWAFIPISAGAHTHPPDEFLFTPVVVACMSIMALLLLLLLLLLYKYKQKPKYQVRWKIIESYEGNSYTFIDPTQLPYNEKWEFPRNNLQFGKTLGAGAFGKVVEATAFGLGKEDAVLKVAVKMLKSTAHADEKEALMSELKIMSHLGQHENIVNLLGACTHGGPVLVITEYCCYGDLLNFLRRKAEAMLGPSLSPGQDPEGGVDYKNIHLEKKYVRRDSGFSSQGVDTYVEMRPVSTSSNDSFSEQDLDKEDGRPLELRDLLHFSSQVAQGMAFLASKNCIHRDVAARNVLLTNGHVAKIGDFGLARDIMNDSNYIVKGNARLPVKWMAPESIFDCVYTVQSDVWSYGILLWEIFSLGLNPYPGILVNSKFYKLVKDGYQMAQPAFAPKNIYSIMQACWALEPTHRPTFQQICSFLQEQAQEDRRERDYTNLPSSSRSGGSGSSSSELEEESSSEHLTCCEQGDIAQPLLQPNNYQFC

SMILES | IC50 ([1]; Table 2) | EC50 [5, 7] | EC50 [6, 10] | other results
COc1cnc2c(Cc3cnc(OCc4ccc([C@H]5CC5(F)F)cn4)c(OC)c3)ccnc2c1 (stereo in doubt) [Example 80] | 4 nM | 50.7 nM | – | IC50 ([1]; Table 3): 4 nM; IC50 [2]: 214 nM; cKit Fold [2]: 53.4 fold; IC50 [3]: > 1000 nM; FLT3 Fold [3]: >100 fold; IC50 [4]: 49 nM; PDGFR-1β Fold [4]: 12.3 fold; EC50 [6, 8]: 29.8 nM
COc1cnc2c(Cc3cnc(OCc4ccc([C@H]5CC5(F)F)cn4)c(OC)c3)ccnc2c1 (stereo in doubt) [Example 81] | 5.1 nM | – | – | IC50 ([1]; Table 3): 5.1 nM; IC50 [2]: > 1000 nM; cKit Fold [2]: >100 fold; IC50 [3]: > 1000 nM; FLT3 Fold [3]: >100 fold; IC50 [4]: 371 nM; PDGFR-1β Fold [4]: 72.7 fold; EC50 [5, 9]: 25.8 nM; EC50 [6, 8]: 60.9 nM
COc1ccc(COc2ncc(Cc3ccnc4cccnc34)cc2OC)nc1 [Example 15, 4-((5-methoxy-6-((5-methoxypyridin-2-yl)methoxy)pyridin-3-yl)methyl)-1,5-naphthyridine] | 9.8 nM | 437 nM | 253 nM | IC50 ([1]; Table 3): 9.8 nM; IC50 [2]: > 1000 nM; cKit Fold [2]: >100 fold; IC50 [3]: > 1000 nM; FLT3 Fold [3]: >100 fold; IC50 [4]: > 1000 nM; PDGFR-1β Fold [4]: >100 fold
COc1cnc2c(Cc3cnc(OCc4ccc(C)cn4)c(OC)c3)ccnc2c1 [Example 55] | 3.2 nM | 155 nM | 45.4 nM | IC50 ([1]; Table 3): 3.2 nM; IC50 [2]: 785 nM; cKit Fold [2]: >100 fold; IC50 [3]: > 1000 nM; FLT3 Fold [3]: >100 fold; IC50 [4]: 322 nM; PDGFR-1β Fold [4]: >100 fold
COc1cnc2c(Cc3cnc(OCc4cc5n(n4)C[C@H](C(F)(F)F)C5)c(OC)c3)ccnc2c1 [Example 110] | 3.4 nM | 109 nM | 36.2 nM | –
COc1cnc2c(Cc3cnc(OCc4cc5n(n4)[C@H]4C[C@H]4C5)c(OC)c3)ccnc2c1 [Example 111] | 2.2 nM | 35 nM | 17.4 nM | –
COc1cnc2c(Cc3cnc(OCc4cc(C(C)(C)OC)n(C)n4)c(OC)c3)ccnc2c1 [Example 113] | 12.3 nM | 348 nM | 143 nM | –
COc1cnc2c(Cc3cnc(OCc4cccc(C(=O)N(C)C)n4)c(OC)c3)ccnc2c1 [Example 117] | 21.1 nM | 344 nM | 170 nM | –
COc1cnc2c(Cc3cnc(OCc4cccc(N5CCC5)n4)c(OC)c3)ccnc2c1 [Example 118] | 3.6 nM | 96.9 nM | 34.5 nM | –
COc1cnc2c(Cc3cnc(OCc4cc5n(n4)[C@@H]4C[C@@H]4C5)c(OC)c3)ccnc2c1 [Example 120] | 1.9 nM | 43.7 nM | 18 nM | –
COc1cnc2c(Cc3cnc(OCc4ccc5cnn(C)c5n4)c(OC)c3)ccnc2c1 [Example 122] | 14 nM | 131 nM | 108 nM | –
COc1cnc2c(Cc3cnc(OCc4cccc(N(C)C(C)=O)n4)c(OC)c3)ccnc2c1 [Example 123] | 52.5 nM | 128 nM | 77 nM | –
COc1cnc2c(Cc3cnc(OCc4cccn(C)c4=O)c(OC)c3)ccnc2c1 [Example 124] | 320 nM | > 1000 nM | 442 nM | –
COc1cnc2c(Cc3cnc(OCc4cccc(=O)n4C)c(OC)c3)ccnc2c1 [Example 125] | 522 nM | > 1000 nM | 950 nM | –
COc1ccc(COc2ncc(Cc3ccnc4cc(N5CCC(OC)C5)cnc34)cc2OC)nc1 (stereo not shown) [Example 126] | 12.2 nM | 3.8 nM | 2.4 nM | –
COc1ccc(COc2ncc(Cc3ccnc4cc(N5CCC5)cnc34)cc2OC)nc1 [Example 127] | 22.3 nM | 28 nM | 25.4 nM | –
COc1cnc2c(Cc3cnc(OCc4cc5n(n4)C[C@@H](F)C5)c(OC)c3)ccnc2c1 [Example 128] | 4.9 nM | 21.5 nM | 4.9 nM | –
COc1cnc2c(Cc3cnc(OCc4ccc5nccn5n4)c(OC)c3)ccnc2c1 [Example 129] | 42.7 nM | 307 nM | 166 nM | –
COc1ccc(COc2ncc(Cc3ccnc4cc(-c5cnn(C)c5)cnc34)cc2OC)nc1 [Example 130] | 1.6 nM | 2 nM | 1.5 nM | –
COc1cnc2c(Cc3cnc(OCc4nc5cccnc5n4C)c(OC)c3)ccnc2c1 [Example 132] | 879 nM | > 1000 nM | > 1000 nM | –
COc1ccc(COc2ncc(Cc3ccnc4cc(C(=O)N(C)C)cnc34)cc2OC)nc1 [Example 133] | 58.8 nM | 443 nM | 312 nM | –

SMILES | IC50 ([1]; Table 2) | EC50 [5, 7] | EC50 [6, 10] | other results
COc1ccc(COc2ncc(Cc3ccnc4cc(N5CCNCC5)cnc34)cc2OC)nc1 [Example 135] | 22.4 nM | 25.8 nM | 66.5 nM | –
COc1ccc(COc2ncc(Cc3ccnc4cc(-c5cnc(C)s5)cnc34)cc2OC)nc1 [Example 138, 5-(8-((5-methoxy-6-((5-methoxypyridin-2-yl)methoxy)pyridin-3-yl)methyl)-1,5-naphthyridin-3-yl)-2-methylthiazole] | 12.6 nM | – | 2.2 nM | EC50 [5, 11]: 1.8 nM
COc1ccc(COc2ncc(Cc3ccnc4cc(-c5ccccn5)cnc34)cc2OC)nc1 [Example 139] | 11.3 nM | 8.8 nM | 7.9 nM | –
COc1ccc(COc2ncc(Cc3ccnc4cc(-c5cccnc5)cnc34)cc2OC)nc1 [Example 140, 8-((5-methoxy-6-((5-methoxypyridin-2-yl)methoxy)pyridin-3-yl)methyl)-3-(pyridin-3-yl)-1,5-naphthyridine] | 9.4 nM | – | 10.6 nM | EC50 [5, 11]: 9.8 nM
COc1ccc(COc2ncc(Cc3ccnc4cc(N5CC(OC)C5)cnc34)cc2OC)nc1 [Example 141] | 7.1 nM | 5.8 nM | 3.7 nM | –
COc1ccc(COc2ncc(Cc3ccnc4cc(-n5cc(C)cn5)cnc34)cc2OC)nc1 [Example 142] | 13.8 nM | 7.3 nM | 4.8 nM | –
COc1ccc(COc2ncc(Cc3ccnc4cc(-n5ccnc5C)cnc34)cc2OC)nc1 [Example 143] | 15.7 nM | 45.9 nM | 57.5 nM | –
COc1ccc(COc2ncc(Cc3ccnc4cc(N5CC(F)(F)C5)cnc34)cc2OC)nc1 [Example 144] | 11.3 nM | 10.7 nM | 25.3 nM | –
COc1cnc2c(Cc3cnc(OCc4cc5cnccn5n4)c(OC)c3)ccnc2c1 [Example 145] | 39.1 nM | 229 nM | 178 nM | –
COc1ccc(COc2ncc(Cc3c(F)cnc4cc(OC)cnc34)cc2OC)nc1 [Example 146] | 208 nM | > 1000 nM | > 1000 nM | –
COc1cnc2c(Cc3cnc(OCc4ccn5nccc5c4)c(OC)c3)ccnc2c1 [Example 147] | 7.9 nM | 60.9 nM | 78.8 nM | –
COc1cnc2c(Cc3cnc(OCc4ccc5ccnn5c4)c(OC)c3)ccnc2c1 [Example 148] | 6.3 nM | 37.3 nM | 49.8 nM | –
COc1cnc2c(Cc3cnc(OCc4cc5cccnc5[nH]4)c(OC)c3)ccnc2c1 [Example 149] | 3.9 nM | 61.6 nM | 91.2 nM | –
COc1cnc2c(Cc3cc(OC)c4nc(N5CCC(OC)CC5)ncc4c3)ccnc2c1 [Example 150] | 947 nM | > 1000 nM | > 1000 nM | –
COc1ccc(COc2ccc(Cc3ccnc4cc(OC)cnc34)cn2)nc1 [Example 151, 3-methoxy-8-((6-((5-methoxypyridin-2-yl)methoxy)pyridin-3-yl)methyl)-1,5-naphthyridine] | 22.6 nM | – | – | EC50 [5, 11]: 412 nM; EC50 ([6]; Mus musculus, 72 h, read-out: ECO2 EC50 (nM)): 280 nM
COc1cnc2c(Cc3ccc4nc(N5CCC(OC)CC5)ncc4c3)ccnc2c1 [Example 152] | > 1000 nM | > 1000 nM | > 1000 nM | –
COc1cnc2c(Cc3ccc4nc([C@H]5CC[C@@H](OC)CC5)cnc4c3)ccnc2c1 [Example 154] | 28.6 nM | 329 nM | – | EC50 [6, 8]: 199 nM
COc1cnc2c(Cc3ccc4nc([C@H]5CC[C@@H](OC)CC5)cnc4c3)ccnc2c1 [Example 155] | 258 nM | – | – | EC50 [5, 9]: 607 nM; EC50 [6, 8]: > 1000 nM
COc1cnc2c(Cc3ccc4nc(C5CCOCC5)cn4c3)ccnc2c1 [Example 156] | > 1000 nM | > 1000 nM | > 1000 nM | –
COc1cnc2c(Cc3ccc4nc(C5CCOCC5)cnc4c3)ccnc2c1 [Example 157] | 543 nM | > 1000 nM | > 1000 nM | –
COc1cnc2c(Cc3ccn4nc(C5CCOCC5)cc4c3)ccnc2c1 [Example 158, 3-methoxy-8-((2-(tetrahydro-2H-pyran-4-yl)pyrazolo[1,5-a]pyridin-5-yl)methyl)-1,5-naphthyridine] | > 1000 nM | > 1000 nM | > 1000 nM | –
